Measured values published in patent US10730840B2, “Substituted tetrahydroisoquinoline ethylbenzamide anti-cancer agents” (Florida A&M University, priority 2017, dated 2020).
Values after ≈ are worked out from the molar mass of the structure shown. Counter-ions that a name gives are not always drawn. Like-named read-outs stand apart in the source and are kept apart here.

Tests used:
[1] = system: Ishikawa (endometrial) cancer cell line; assay: CellTiter-Glo antiproliferative activity, Ishikawa cell line; type: cell-based, human; details: 72 h exposure; for IC50: Homo sapiens, Ishikawa
Description: Numerous substituted THIQs were systematically synthesized employing molecular design and structure activity relationship studies (Suresh et al., (2014) Lett. Drug Design & Discov. 11: 428-436; Gangapuram et al., (2014) J. Cancer Sci. Ther. 6: 161-169). The compounds' cytotoxic effects on MCF-7 (estrogen receptor positive breast cancer) cell lines, MDA-MB-231 (estrogen receptor negative breast cancer) cell lines and Ishikawa cell lines using CellTiter-Glo (CTG) luminescent cell viability essay were studied. The tests were done on different concentrations of the compounds ranging from 0.01 to 100,000 nM on 5000 MCF-7 cells/well, on 5000 MDA-MB-231 cells/well and on 5000 Ishikawa cells/well. Drug exposed cells were incubated at 37° C. for three days followed by CTG assay. Then IC50 values were generated from Graph Pad Prism 4. […]
(§1) The antiproliferative activities of substituted tetrahydroisoquinolines 2a-2m, 3a-3l and 4a-4f were evaluated according to the procedure reported previously (Crouch et al., (1993) J. Immunol. Methods 160: 81-88).
(§2) Human MCF-7 and MDA-MB-231 breast cancer cell lines were purchased from the NCI. The human Ishikawa endometrial cancer cell line was purchased from Sigma Aldrich. All three cell lines were cultured in phenol red-free RPMI-1640 (Hyclone) (500 mL) supplemented with L-glutamine-dipeptide (Hyclone) (5 mL), and 10% fetal bovine serum (Atlanta Biologicals) (50 mL).
(§3) The cell lines were cultured and treated with compounds under study including the standard TAM ranging from 0.01 nM to 100,000 nM concentration in the presence of 10 nM estradiol using the previous reported method (Suresh et al., (2014) Lett. Drug Des. Discov. 11: 428-436).
(§4) The amount of ATP is determined using a system based on luciferase and D-luciferin resulting in light generation.

[2] = system: MCF-7 (ER positive breast cancer cell line); assay: CellTiter-Glo antiproliferative activity, MCF-7 cell line; type: cell-based, human; details: for IC50: Homo sapiens, MCF7; for IC50 / IC50 MCF-7: 72 h exposure
Description: (§5) Numerous substituted THIQs were systematically synthesized employing molecular design and structure activity relationship studies (Suresh et al., (2014) Lett. Drug Design & Discov. 11: 428-436; Gangapuram et al., (2014) J. Cancer Sci. Ther. 6: 161-169). The compounds' cytotoxic effects on MCF-7 (estrogen receptor positive breast cancer) cell lines, MDA-MB-231 (estrogen receptor negative breast cancer) cell lines and Ishikawa cell lines using CellTiter-Glo (CTG) luminescent cell viability essay were studied. The tests were done on different concentrations of the compounds ranging from 0.01 to 100,000 nM on 5000 MCF-7 cells/well, on 5000 MDA-MB-231 cells/well and on 5000 Ishikawa cells/well. Drug exposed cells were incubated at 37° C. for three days followed by CTG assay. Then IC50 values were generated from Graph Pad Prism 4.
(§6) Chemistry: Several substituted tetrahydroisoquinolines 2d-2m, 3h, 3k, 3l, and 4a-4f were prepared according to three different procedures as shown in Schemes 1, 2 and 3 (FIGS. 2-4). […] The aminating agent 10 was prepared using a reported procedure (Tamura et al., (1972) J. Org. Chem. 40: 4133-4135). The amino salts of ring substituted 2-aminoisoquinolinium mesitylenesulfonates of general structure 11 used in the present study were prepared by the reaction of substituted isoquinolines and the aminating agent 10 as previously reported (Gangapuram et al., (2014) J. Cancer Sci. Ther. 6: 161-169). […] The aminating agent 13 was prepared using a reported procedure (Legault & Charette (2003) J. Org. Chem. 68: 7119-7122). The amino salts of ring substituted 2-aminoisoquinolinium compounds of general structure 14 were obtained with the reaction of the substituted isoquinolines and the aminating agent 13 in CH3CN heated at 50° C. for 24 hours. Without further purification, the salts were used to prepare the N-ylides by reaction with substituted acyl/sulfonyl chlorides. […] N-Oxidation of commercially available ring substituted THIQs followed by the reduction of the NO group using standard zinc/acetic acid led to the synthesis of N-amino THIQs.
as §1, §2, §3, §4

[3] = system: MDA-MB-231 (ER negative breast carcinoma cell line); assay: CellTiter-Glo antiproliferative activity, MDA-MB-231 cell line; type: cell-based, human; details: 72 h exposure; for IC50: Homo sapiens, MDA-MB-231
Description: as §5, §6, §1, §2, §3

[4] = Table 1, in the presence of 10 nM estradiol, read-out: IC50 Ishikawa
[5] = Table 1, in the presence of 10 nM estradiol, read-out: IC50 MCF-7
[6] = Table 1, in the presence of 10 nM estradiol
[7] = Table 2, estradiol added, read-out: IC50 Ishikawa
[8] = Table 2, estradiol added, read-out: IC50 MCF-7

Compound	IC50 [1, 4] [mg/L]	IC50 [2, 5] [mg/L]	IC50 [3, 6] [mg/L]	melting point [°C]	IC50 Ishikawa [1, 6] [mg/L]	IC50 MCF-7 [2, 6] [mg/L]	IC50 MDA-MB-231 [3, 6] [mg/L]	other results
COc1ccc(C(=O)NN2CCc3ccc(O)cc3C2)cc1 [Compound 2d, N-(7-hydroxy-3,4-dihydroisoquinolin-2(1H)-yl)-4-methoxybenzamide]	0.99	> 29.8	25.2	192.5 to 194.3	–	–	–	–
COc1cccc(C(=O)NN2CCc3ccc(O)cc3C2)c1 [Compound 2e, N-(7-hydroxy-3,4-dihydroisoquinolin-2(1H)-yl)-3-methoxybenzamide]	0.31	1.86	1.71	190.5 to 192.3	–	–	–	–
COc1ccccc1C(=O)NN1CCc2ccc(O)cc2C1 [Compound 2f, N-(7-hydroxy-3,4-dihydroisoquinolin-2(1H)-yl)-2-methoxybenzamide]	> 29.8	> 29.8	> 29.8	197.3 to 199.4	–	–	–	–
CCc1ccccc1C(=O)NN1CCc2ccc(O)cc2C1 [Compound 2g, 2-Ethyl-N-(7-hydroxy-3,4-dihydroisoquinolin-2(1H)-yl) benzamide]	–	–	–	–	>29.64	>29.64	>29.64	–
CCc1ccc(C(=O)NN2CCc3cc(O)ccc3C2)cc1 [Compound 2h, 4-Ethyl-N-(6-hydroxy-3,4-dihydroisoquinolin-2(1H)-yl) benzamide]	–	–	–	–	22.38	>29.64	>29.64	–
CCc1ccc(C(=O)NN2CCc3cccc(N)c3C2)cc1 [Compound 2k, N-(8-amino-3,4-dihydroisoquinolin-2(1H)-yl)-4-ethylbenzamide]	0.6	2.23	16.8	223.5 to 224.8	–	–	–	–
Nc1ccc(C(=O)NN2CCc3ccc(Br)cc3C2)cc1 [Compound 2l, 4-Amino-N-(7-bromo-3,4-dihydroisoquinolin-2(1H)-yl) benzamide]	–	–	–	–	1.09	2.80	9.86	–
COc1cccc2c1CCN(NC(=O)c1ccc(C(C)(C)C)cc1)C2 [Compound 3a, 4-(tert-butyl)-N-(5-Methoxy-3,4-dihydroisoquinolin-2(1H)-yl) benzamide]	–	–	–	–	>33.84	>33.84	>33.84	–
CC(C)(C)c1ccc(C(=O)NN2CCc3c(O)cccc3C2)cc1 [Compound 3b, 4-(tert-butyl)-N-(5-Hydroxy-3,4-dihydroisoquinolin-2(1H)-yl) benzamide]	–	–	–	–	10.96	7.92	10.25	–
CC(C)(C)c1ccc(C(=O)NN2CCc3c(cccc3OCc3ccccc3)C2)cc1 [Compound 3e, N-(5-(Benzyloxy)-3,4-dihydroisoquinolin-2(1H)-yl)-4-(tertbutyl) benzamide]	–	–	–	–	>41.45	>41.45	>41.45	–
CCc1ccc(C(=O)NN2CCc3c(O)cccc3C2)cc1 [Compound 3f, 4-Ethyl-N-(5-hydroxy-3,4-dihydroisoquinolin-2(1H)-yl) benzamide]	–	–	–	–	9.93	18.61	15.61	–
CCc1ccc(C(=O)NN2CCc3cc(C(=O)OC)ccc3C2)cc1 [Compound 3h, methyl-2-(4-ethylbenzamido)-1,2,3,4-tetrahydroisoquinoline-6-carboxylate]	8.64	15.2	16.1	–	–	–	–	–
CCc1ccc(C(=O)NN2CCc3cc(C(=O)O)ccc3C2)cc1 [Compound 3k, 2-(4-Ethylbenzamido)-1,2,3,4-tetrahydroisoquinoline-6-carboxylic acid]	> 32.4	> 32.4	> 32.4	251 to 253	–	–	–	–
CCc1ccccc1C(=O)NN1CCc2ccc(C#N)cc2C1 [Compound 4a, N-(7-Cyano-3,4-dihydroisoquinolin-2(1H)-yl)-2-ethylbenzamide]	> 30.5	26.4	> 30.5	162 to 167	–	–	–	–
CCc1ccc(C(=O)NN2CCc3cc(OC)c(OC)cc3C2)cc1 [Compound 4b, N-(6,7-Dimethoxy-3,4-dihydroisoquinolin-2(1H)-yl)-4-ethylbenzamide]	> 34.1	> 34.1	> 34.1	224 to 225	–	–	–	–
CCc1ccc(C(=O)NN2CCc3ccc(C#N)cc3C2)cc1 [Compound 4d, N-(7-Cyano-3,4-dihydroisoquinolin-2(1H)-yl)-4-ethylbenzamide]	0.9	1.28	1.76	–	–	–	–	IC50 ([1]; in the presence of 10 nM estradiol, read-out: IC50 against Ishikawa cell line): < 7.87 mg/L; IC50 ([2]; in the presence of 10 nM estradiol, read-out: IC50 against MCF-7 cell line): 1.28 mg/L; antiproliferative activity against MCF-7 cell line in words ([2]; based on IC50 value): moderate activity
O=C(c1ccc(OCCN2CCCCC2)cc1)c1c(-c2ccc(O)cc2)sc2cc(O)ccc12 [Raloxifene-Hydrochloride, reference compound]	10.5	0.98	11.2	–	–	–	–	–
CCc1ccc(C(=O)NN2CCc3ccc(Cl)cc3C2)cc1 [Redda-EVK-I-132, N-(7-Chloro-3,4-dihydroisoquinolin-2(1H)-yl)-4-ethylbenzamide]	–	–	–	–	–	–	–	IC50 [1, 7]: 0.318 mg/L (≈ 1.01 µM); IC50 [2, 8]: 0.678 mg/L (≈ 2.15 µM); IC50 ([3]; Table 2, estradiol added): 0.826 mg/L (≈ 2.62 µM)
CCc1ccc(C(=O)NN2CCc3ccccc3C2c2ccco2)cc1 (stereo not shown) [Redda-EVK-I-135, 4-Ethyl-N-(1-(furan-2-yl)-3,4-dihydroisoquinolin-2(1H)-yl)benzamide]	–	–	–	–	–	–	–	IC50 [1, 7]: 1.71 mg/L (≈ 4.94 µM); IC50 [2, 8]: 2.39 mg/L (≈ 6.9 µM); IC50 ([3]; Table 2, estradiol added): 3.88 mg/L (≈ 11.2 µM)
CCc1ccc(C(=O)NN2CCc3ccc(OS(N)(=O)=O)cc3C2)cc1 [Redda-GM-4-171, 2-(4-Ethylbenzamido)-1,2,3,4-tetrahydroisoquinolin-7-yl-sulfamate]	–	–	–	–	–	–	–	IC50 [1, 7]: 0.12 mg/L (≈ 0.32 µM); IC50 [2, 8]: 2.14 mg/L (≈ 5.7 µM); IC50 ([3]; Table 2, estradiol added): 2.53 mg/L (≈ 6.74 µM)
